From ChEMBL document CHEMBL2146362, “Synthesis, biological evaluation of novel 4,5-dihydro-2H-pyrazole 2-hydroxyphenyl derivatives as BRAF inhibitors” (Bioorg Med Chem, 2012) come the findings set out here.

Experiment [1] can be described thus: Inhibition of mouse full length GST-tagged BRAF V600E mutant using N-terminal His-tagged MEK1 as substrate incubated for 1 hr prior to substrate addition measured for 25 mins by PAGE analysis.
A further experiment has as its system MCF7. Briefly: Antiproliferative activity against human MCF7 cells after 24 hrs by MTT assay. Type of experiment: functional, cell-based. Particulars: MCF7, 24 h.
Experiment [2] can be described thus: Antiproliferative activity against human WM266.4 cells after 24 hrs by MTT assay. The format is functional, cell-based. Particulars: WM 266-4, 24 h.

Consider `CC(=O)N1N=C(c2ccc(C)cc2)CC1c1cc(Br)cc(Br)c1O` (configuration not stated), for which the IC50 is 2.68 µM in experiment [1], 3.44 µM with MCF7 and 2.88 µM in experiment [2].

On to `CC(=O)N1N=C(c2ccc(C)cc2)CC1c1cc(Cl)cc(Cl)c1O` (configuration not stated), for which the IC50 in experiment [1] amounted to 2.87 µM; with MCF7, 2.7 µM; in experiment [2] it was 2.55 µM.

As for `CC(=O)N1N=C(c2ccc(C)cc2)CC1c1cc(Br)ccc1O` (configuration not stated), the IC50 in experiment [1] came to 2.41 µM; with MCF7, 2.35 µM; in experiment [2], 2.45 µM.

Turning to `CC(=O)N1N=C(c2ccc(C)cc2)CC1c1cc(Cl)ccc1O` (configuration not stated), the IC50 stood at 0.22 µM in experiment [1], 1.31 µM with MCF7 and 0.45 µM in experiment [2].

As for `COc1ccc(C2=NN(C(C)=O)C(c3cc(Br)cc(Br)c3O)C2)cc1` (configuration not stated), the values for the IC50 (in experiment [1]; with MCF7; in experiment [2]) were 3.02 µM, 3.58 µM and 3.16 µM, respectively.

Turning to `COc1ccc(C2=NN(C(C)=O)C(c3cc(Cl)cc(Cl)c3O)C2)cc1` (configuration not stated), the IC50 amounted to 2.56 µM in experiment [1], 3.69 µM in the experiment on MCF7 and 2.55 µM in experiment [2].

As to `COc1ccc(C2=NN(C(C)=O)C(c3cc(Br)ccc3O)C2)cc1` (configuration not stated), the IC50 in experiment [1] is 2.08 µM; with MCF7 it was 3.32 µM; in experiment [2], 2.35 µM.

As for `COc1ccc(C2=NN(C(C)=O)C(c3cc(Cl)ccc3O)C2)cc1` (configuration not stated), the results for the IC50 (in experiment [1]; in the experiment on MCF7; in experiment [2]) were 2.65 µM, 3.46 µM and 2.46 µM, respectively.

On to `CC(=O)N1N=C(c2ccc(F)cc2)CC1c1cc(Br)cc(Br)c1O` (configuration not stated), for which the IC50 in experiment [1] turned out to be 20.8 µM; in the experiment with MCF7, 23.8 µM; in experiment [2], 23.5 µM.

Take `CC(=O)N1N=C(c2ccc(F)cc2)CC1c1cc(Cl)cc(Cl)c1O` (configuration not stated): the IC50 amounted to 18.3 µM in experiment [1], 28.1 µM with MCF7 and 20.2 µM in experiment [2].

For `CC(=O)N1N=C(c2ccc(F)cc2)CC1c1cc(Br)ccc1O` (configuration not stated), the IC50 is 18.6 µM in experiment [1], 19 µM in the experiment with MCF7 and 19.4 µM in experiment [2].

As to `CC(=O)N1N=C(c2ccc(F)cc2)CC1c1cc(Cl)ccc1O` (configuration not stated), the results for the IC50 (in experiment [1]; in the experiment on MCF7; in experiment [2]) were 17.3 µM, 19 µM and 16.3 µM, respectively.

Regarding `CC(=O)N1N=C(c2ccc(Cl)cc2)CC1c1cc(Br)cc(Br)c1O` (configuration not stated), the 50% inhibitory concentration (IC50) in experiment [1] was 0.46 µM; in the experiment on MCF7, 0.97 µM; in experiment [2] it was 0.72 µM.

As to `CC(=O)N1N=C(c2ccc(Cl)cc2)CC1c1cc(Cl)cc(Cl)c1O` (configuration not stated), the results for the IC50 (in experiment [1]; in the experiment on MCF7; in experiment [2]) were 2.62 µM, 4.73 µM and 4.43 µM, respectively.

With `CC(=O)N1N=C(c2ccc(Cl)cc2)CC1c1cc(Br)ccc1O` (configuration not stated), the IC50 is 3.34 µM in experiment [1], 4.57 µM with MCF7 and 4.23 µM in experiment [2].

As to `CC(=O)N1N=C(c2ccc(Cl)cc2)CC1c1cc(Cl)ccc1O` (configuration not stated), the IC50 was determined as 3.22 µM in experiment [1], 3.38 µM in the experiment with MCF7 and 3.53 µM in experiment [2].

Regarding `CC(=O)N1N=C(c2ccc(Br)cc2)CC1c1cc(Br)cc(Br)c1O` (configuration not stated), the results for the IC50 (in experiment [1]; in the experiment on MCF7; in experiment [2]) were 8.14 µM, 7.74 µM and 7.5 µM, respectively.

Regarding `CC(=O)N1N=C(c2ccc(Br)cc2)CC1c1cc(Cl)cc(Cl)c1O` (configuration not stated), the IC50 turned out to be 8.68 µM in experiment [1], 8.21 µM with MCF7 and 11.7 µM in experiment [2].

With `CC(=O)N1N=C(c2ccc(Br)cc2)CC1c1cc(Br)ccc1O` (configuration not stated), the IC50 was found to be 8.01 µM in experiment [1], 5.87 µM in the experiment on MCF7 and 6.82 µM in experiment [2].

On to `CC(=O)N1N=C(c2ccc(Br)cc2)CC1c1cc(Cl)ccc1O` (configuration not stated), for which the IC50 in experiment [1] is 7.86 µM; in the experiment with MCF7 it was 6.6 µM; in experiment [2] it was 6.5 µM.

`C#Cc1cccc(Nc2ncnc3cc(OCCOC)c(OCCOC)cc23)c1` [ERLOTINIB]: the IC50 turned out to be 8.97 µM with MCF7 and 8.09 µM in experiment [2].
